# Assay results as given in patent US12606541B2, “PPARg modulators and methods of use” (Eisai R&D Management Co., Ltd., priority 2020, dated 2026).
# Read-outs that look alike come from different tables or passages of the source.
# Tests used:
# [1] = system: UM-UC-9 engineered cells; test: Cell proliferation / short-term viability assay, CellTiter-Glo 144 h; format: cell-based, human; conditions: read-out: CTGlo 144 h UMUC9.5, G150
# Method in brief: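 UM-UC-9 engineered assay-ready cells seeded at 500 cells/well in high-glucose DMEM/10% FBS, treated from dose-response plates, grown at 37° C, 5% CO2. CellTiter-Glo 2.0 luminescence read on day 7, with a day-0 pretreatment plate as T0 reference and DMSO wells as negative control.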
# [2] = target: T1, His6-TEV-PPARγ-(234-505) (Homo sapiens, UniProt P37231); test: TR-FRET Assay to Measure Co-R Peptide Recruitment to PPARγ; format: biochemical; conditions: Co-R peptide (SMRT-ID2) recruitment; top final concentration 20 μM; read-out: TR-FRET i-Ag; AC50
# T1 construct: The His6-TEV-PPARγ-(234-505) protein for assay was expressed and purified; TEV cleavage site (N); made in house
# T1 sequence (P37231 234-505): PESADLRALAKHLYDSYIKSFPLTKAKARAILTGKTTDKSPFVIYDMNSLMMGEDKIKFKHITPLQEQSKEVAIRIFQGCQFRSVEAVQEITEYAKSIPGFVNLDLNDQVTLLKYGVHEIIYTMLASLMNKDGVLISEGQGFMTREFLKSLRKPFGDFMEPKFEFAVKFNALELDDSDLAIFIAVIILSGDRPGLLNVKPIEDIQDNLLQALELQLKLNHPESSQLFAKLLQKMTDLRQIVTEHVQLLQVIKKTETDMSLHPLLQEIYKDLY
# Method in brief: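 His-tagged PPARγ (or controls) was preincubated with compound for 20 minutes at room temperature, then 5 nM anti-His terbium antibody and 200 nM FITC-labeled SMRT-ID2 corepressor peptide (final) were added for a further hour. TR-FRET signal was normalized to percent response using 500 nM T0070907 and DMSO controls.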
Compound,AC50 [2] [nM],IC50 [1] [nM],"IC50 ([1]; Homo sapiens, UM-UC-9, 144 h) [nM]"
"COc1cc(-c2cc(C(=O)N3CC[C@H](C(=O)NC(C)c4cc5n(n4)CCN(C)C5)CC34CC4)n[nH]2)c(F)cn1 (single isomer, unassigned) [Example 475-A]",433,2840,
"COc1cc(-c2cc(C(=O)N3CCC(C(=O)NCc4ncc(N5CC6CC5CN6)cc4Cl)CC34CC4)n[nH]2)c(F)cn1 (mixture of isomers) [Example 462, (S)—N-((5-((1R,4R)-2,5-diazabicyclo[2.2.1]heptan-2-yl)-3-chloropyridin-2-yl)methyl)-4-(3-(5-fluoro-2-methoxypyridin-4-yl)-1H-pyrazole-5-carbonyl)-4-azaspiro[2.5]octane-7-carboxamide and (S)—N-((5-((1S,4S)-2,5-diazabicyclo[2.2.1]heptan-2-yl)-3-chloropyridin-2-yl)methyl)-4-(3-(5-fluoro-2-methoxypyridin-4-yl)-1H-pyrazole-5-carbonyl)-4-azaspiro[2.5]octane-7-carboxamide]",14.1,513,
"COc1cc(-c2cc(C(=O)N3[C@@H]4CC[C@H]3C[C@H](C(=O)N[C@@H]3CCN(CC5(C(F)(F)F)CC5)C3)C4)n[nH]2)c(F)cn1 [Example 437, (1R,3s,5S)-8-(5-(5-fluoro-2-methoxypyridin-4-yl)-1H-pyrazole-3-carbonyl)-N—((R)-1-((1-(trifluoromethyl)cyclopropyl)methyl)pyrrolidin-3-yl)-8-azabicyclo[3.2.1]octane-3-carboxamide]",14.8,,67.6
"COc1cc(-c2cc(C(=O)N3CCC(C(=O)NC4CCC5(CCO5)CC4)CC3)n[nH]2)c(F)cn1 (stereo not drawn) [Example 276, 1-(5-(5-fluoro-2-methoxypyridin-4-yl)-1H-pyrazole-3-carbonyl)-N-(1-oxaspiro[3.5]nonan-7-yl)piperidine-4-carboxamide]",813,,> 4000
"COc1cc(-c2cc(C(=O)N3[C@@H]4CC[C@H]3C[C@H](C(=O)NC3CCC(N)(C(F)(F)F)CC3)C4)n[nH]2)c(F)cn1 (stereo partly drawn) [Example 441, (1R,3s,5S)—N-(4-amino-4-(trifluoromethyl)cyclohexyl)-8-(5-(5-fluoro-2-methoxypyridin-4-yl)-1H-pyrazole-3-carbonyl)-8-azabicyclo[3.2.1]octane-3-carboxamide]",56.7,,350
"COc1cc(-c2cc(C(=O)N3CCC(C(=O)NC4CCN(c5cnc(C)nc5)C4)CC34CC4)n[nH]2)c(F)cn1 (mixture of isomers) [Example 453, (S)-4-(5-(5-fluoro-2-methoxypyridin-4-yl)-1H-pyrazole-3-carbonyl)-N—((S)-1-(2-methylpyrimidin-5-yl)pyrrolidin-3-yl)-4-azaspiro[2.5]octane-7-carboxamide and (S)-4-(5-(5-fluoro-2-methoxypyridin-4-yl)-1H-pyrazole-3-carbonyl)-N—((R)-1-(2-methylpyrimidin-5-yl)pyrrolidin-3-yl)-4-azaspiro[2.5]octane-7-carboxamide]",25.6,44.2,
"COc1cc(-c2cc(C(=O)N3CCC(C(=O)NC(C)c4cn5c(n4)COCC5)CC34CC4)n[nH]2)c(F)cn1 (mixture of isomers) [Example 415, (S)—N—((S)-1-(5,6-dihydro-8-imidazo[2,1-c][1,4]oxazin-2-yl)ethyl)-4-(5-(5-fluoro-2-methoxypyridin-4-yl)-1H-pyrazole-3-carbonyl)-4-azaspiro[2.5]octane-7-carboxamide and (S)—N—((R)-1-(5,6-dihydro-8H-imidazo[2,1-c][1,4]oxazin-2-yl)ethyl)-4-(5-(5-fluoro-2-methoxypyridin-4-yl)-1H-pyrazole-3-carbonyl)-4-azaspiro[2.5]octane-7-carboxamide]",163,524,
"COc1cc(-c2cc(C(=O)N3CCC(NC(=O)C4CCC(O)(C(F)(F)F)CC4)CC34CC4)n[nH]2)c(F)cn1 (single isomer, unassigned) [Example 347-D]",≥ 20000,> 10000,
"COc1cc(-c2cc(C(=O)N3CCC(C(=O)NC4CCN(CC(F)(F)CO)C4)CC34CC4)n[nH]2)c(F)cn1 (mixture of isomers) [Example 459, (S)—N—((S)-1-(2,2-difluoro-3-hydroxypropyl)pyrrolidin-3-yl)-4-(5-(5-fluoro-2-methoxypyridin-4-yl)-1H-pyrazole-3-carbonyl)-4-azaspiro[2.5]octane-7-carboxamide and (S)—N—((R)-1-(2,2-difluoro-3-hydroxypropyl)pyrrolidin-3-yl)-4-(5-(5-fluoro-2-methoxypyridin-4-yl)-1H-pyrazole-3-carbonyl)-4-azaspiro[2.5]octane-7-carboxamide]",11.7,102,

# Now from value to compound, other results behind:
AC50 [2] [nM],Compound,IC50 [1] [nM],"IC50 ([1]; Homo sapiens, UM-UC-9, 144 h) [nM]"
644,"COc1cc(-c2cc(C(=O)N3CC[C@H](C(=O)NCc4ncc(N5CC6CC5CN6)cn4)CC34CC4)n[nH]2)c(F)cn1 (single isomer, unassigned) [Example 467-B]",> 10000,
130,"COc1cc(-c2cc(C(=O)N3CC[C@H](C(=O)NC45CC(CO)(C4)OC5C)CC34CC4)n[nH]2)c(F)cn1 (single isomer, unassigned) [Example 518-A]",3130,
9.3,"COc1cc(-c2cc(C(=O)N3CCC(C(=O)NC4CCC(O)(C(F)(F)F)CC4)CC34CC4)n[nH]2)ncn1 (single isomer, unassigned) [Example 338-A]",16.2,
34.1,"COc1cc(-c2cc(C(=O)N3CC[C@H](C(=O)NC4CN(CC5(F)CC5)C4)CC34CC4)n[nH]2)c(F)cn1 [Example 406, (S)-4-(5-(5-fluoro-2-methoxypyridin-4-yl)-1H-pyrazole-3-carbonyl)-N-(1-((1-fluorocyclopropyl)methyl)azetidin-3-yl)-4-azaspiro[2.5]octane-7-carboxamide]",,73.3
29.5,"COc1cc(-c2cc(C(=O)N3CC[C@H](C(=O)NCc4nc(N5C[C@@H](C)N[C@@H](C)C5)oc4C(F)(F)F)CC34CC4)n[nH]2)c(F)cn1 [Example 482, (S)—N-((2-((3S,5R)-3,5-dimethylpiperazin-1-yl)-5-(trifluoromethyl)oxazol-4-yl)methyl)-4-(5-(5-fluoro-2-methoxypyridin-4-yl)-1H-pyrazole-3-carbonyl)-4-azaspiro[2.5]octane-7-carboxamide]",,270
130,"COc1cc(-c2cc(C(=O)N3CCC(C(=O)NCc4cccc5ccnn45)CC3)n[nH]2)c(Cl)cn1 [Example 137, 1-(5-(5-chloro-2-methoxypyridin-4-yl)-1H-pyrazole-3-carbonyl)-N-(pyrazolo[1,5-a]pyridin-7-ylmethyl)piperidine-4-carboxamide]",,678
129,"COc1cc(-c2cc(C(=O)N3CC[C@H](C(=O)NC4CCC5CCCN5C4)CC34CC4)n[nH]2)c(F)cn1 (single isomer, unassigned) [Example 376-D]",71.4,
3.3,"COc1cc(-c2cc(C(=O)N3CC[C@H](C(=O)NC4CCN(c5ccnc6[nH]ncc56)C4)CC34CC4)n[nH]2)c(F)cn1 (single isomer, unassigned) [Example 450-A]",162,
75.1,"COc1cc(-c2cc(C(=O)N3CCC(C(=O)NCc4ccc5c(c4)C(C)(C)CN5)CC3)n[nH]2)c(F)cn1 [Example 278, N-((3,3-dimethylindolin-5-yl)methyl)-1-(5-(5-fluoro-2-methoxypyridin-4-yl)-1H-pyrazole-3-carbonyl)piperidine-4-carboxamide]",,478
